Source: patent US11718604B2, “4-amino-6-(1,3-benzodioxole)picolinates and their use as herbicides” (Dow AgroSciences LLC, priority 2018, dated 2023)

Legend:
Format in all cases: in vivo
[1] = test system: VIOTR: wild violet (Viola tricolor); test: Post-emergent herbicidal test, wild violet; conditions: post-emergence, 336 h, 14 days after application, read-out: Visual Growth Reduction (%) 14 Days After Application VIOTR; for pest or weed control at 17.5 g/ha: 17.5 g ai/ha; for pest or weed control at 35 g/ha: 35 g ai/ha; for pest or weed control at 70 g/ha: 70 g ai/ha; for pest or weed control at 140 g/ha: 140 g ai/ha
Outline: (§1)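 Scores reflect visual injury (0–100%) at 14 d post-spray on young plants treated at the 1st/2nd true leaf stage. Greenhouse held at about 23-29° C day and 22-28° C night; spray volume 187 L/ha, with solvent-blank controls.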

[2] = test system: SORVU: shattercane (Sorghum bicolor); test: Post-emergent herbicidal test, shattercane; conditions: post-emergence, 336 h, 14 days after application, read-out: Visual Growth Reduction (%) 14 Days After Application SORVU; for pest or weed control at 17.5 g/ha: 17.5 g ai/ha; for pest or weed control at 35 g/ha: 35 g ai/ha; for pest or weed control at 70 g/ha: 70 g ai/ha; for pest or weed control at 140 g/ha: 140 g ai/ha
Outline: as §1

[3] = test system: BRSNN: oilseed rape, canola (Brassica napus); test: Post-emergent herbicidal test, oilseed rape; conditions: post-emergence, 336 h, 14 days after application, read-out: Visual Growth Reduction (%) 14 Days After Application BRSNN; for pest or weed control at 17.5 g/ha: 17.5 g ai/ha; for pest or weed control at 35 g/ha: 35 g ai/ha; for pest or weed control at 70 g/ha: 70 g ai/ha; for pest or weed control at 140 g/ha: 140 g ai/ha
Outline: as §1

[4] = test system: CYPES: yellow nutsedge (Cyperus esculentus); test: Post-emergent herbicidal test, yellow nutsedge; conditions: post-emergence, 336 h, 14 days after application, read-out: Visual Growth Reduction (%) 14 Days After Application CYPES; for pest or weed control at 17.5 g/ha: 17.5 g ai/ha; for pest or weed control at 35 g/ha: 35 g ai/ha; for pest or weed control at 70 g/ha: 70 g ai/ha; for pest or weed control at 140 g/ha: 140 g ai/ha
Outline: as §1

[5] = test system: DIGSA: large crabgrass (Digitaria sanguinalis); test: Post-emergent herbicidal test, large crabgrass; conditions: post-emergence, 336 h, 14 days after application, read-out: Visual Growth Reduction (%) 14 Days After Application DIGSA; for pest or weed control at 17.5 g/ha: 17.5 g ai/ha; for pest or weed control at 35 g/ha: 35 g ai/ha; for pest or weed control at 70 g/ha: 70 g ai/ha; for pest or weed control at 140 g/ha: 140 g ai/ha
Outline: as §1

[6] = test system: CIRAR: Canada thistle (Cirsium arvense); test: Post-emergent herbicidal test, Canada thistle; conditions: post-emergence, 336 h, 14 days after application, read-out: Visual Growth Reduction (%) 14 Days After Application CIRAR; for pest or weed control at 17.5 g/ha: 17.5 g ai/ha; for pest or weed control at 35 g/ha: 35 g ai/ha; for pest or weed control at 70 g/ha: 70 g ai/ha; for pest or weed control at 140 g/ha: 140 g ai/ha
Outline: as §1

[7] = test system: ECHCG: barnyardgrass (Echinochloa crus-galli); test: Post-emergent herbicidal test, barnyardgrass; conditions: post-emergence, 336 h, 14 days after application, read-out: Visual Growth Reduction (%) 14 Days After Application ECHCG; for pest or weed control at 17.5 g/ha: 17.5 g ai/ha; for pest or weed control at 35 g/ha: 35 g ai/ha; for pest or weed control at 70 g/ha: 70 g ai/ha; for pest or weed control at 140 g/ha: 140 g ai/ha
Outline: as §1

[8] = test system: SETFA: giant foxtail (Setaria faberi); test: Post-emergent herbicidal test, giant foxtail; conditions: post-emergence, 336 h, 14 days after application, read-out: Visual Growth Reduction (%) 14 Days After Application SETFA; for pest or weed control at 17.5 g/ha: 17.5 g ai/ha; for pest or weed control at 35 g/ha: 35 g ai/ha; for pest or weed control at 70 g/ha: 70 g ai/ha; for pest or weed control at 140 g/ha: 140 g ai/ha
Outline: as §1

[9] = test system: EPHHL: wild poinsettia (Euphorbia heterophylla); test: Post-emergent herbicidal test, wild poinsettia; conditions: post-emergence, 336 h, 14 days after application, read-out: Visual Growth Reduction (%) 14 Days After Application EPHHL; for pest or weed control at 17.5 g/ha: 17.5 g ai/ha; for pest or weed control at 35 g/ha: 35 g ai/ha; for pest or weed control at 70 g/ha: 70 g ai/ha; for pest or weed control at 140 g/ha: 140 g ai/ha
Outline: as §1

[10] = test system: ABUTH: velvetleaf (Abutilon theophrasti); test: Post-emergent herbicidal test, velvetleaf; conditions: post-emergence, 336 h, 14 days after application, read-out: Visual Growth Reduction (%) 14 Days After Application ABUTH; for pest or weed control at 17.5 g/ha: 17.5 g ai/ha; for pest or weed control at 35 g/ha: 35 g ai/ha; for pest or weed control at 70 g/ha: 70 g ai/ha; for pest or weed control at 140 g/ha: 140 g ai/ha
Outline: as §1

[11] = test system: IPOHE: ivyleaf morningglory (Ipomoea hederacea); test: Post-emergent herbicidal test, ivyleaf morningglory; conditions: post-emergence, 336 h, 14 days after application, read-out: Visual Growth Reduction (%) 14 Days After Application IPOHE; for pest or weed control at 17.5 g/ha: 17.5 g ai/ha; for pest or weed control at 35 g/ha: 35 g ai/ha; for pest or weed control at 70 g/ha: 70 g ai/ha; for pest or weed control at 140 g/ha: 140 g ai/ha
Outline: as §1

## Nc1c(F)c(-c2cccc3c2OC(F)(F)O3)nc(C(=O)O)c1Cl [Compound 5]
[1]
  pest or weed control at 17.5 g/ha: 0%
  pest or weed control at 35 g/ha: 0%
  pest or weed control at 70 g/ha: 10%
  pest or weed control at 140 g/ha: 10%
[2]
  pest or weed control at 17.5 g/ha: 0%
  pest or weed control at 35 g/ha: 0%
  pest or weed control at 70 g/ha: 0%
  pest or weed control at 140 g/ha: 0%
[3]
  pest or weed control at 17.5 g/ha: 75%
  pest or weed control at 35 g/ha: 80%
  pest or weed control at 70 g/ha: 85%
  pest or weed control at 140 g/ha: 95%
[4]
  pest or weed control at 17.5 g/ha: 0%
  pest or weed control at 35 g/ha: 0%
  pest or weed control at 70 g/ha: 0%
  pest or weed control at 140 g/ha: 0%
[5]
  pest or weed control at 17.5 g/ha: 0%
  pest or weed control at 35 g/ha: 0%
  pest or weed control at 70 g/ha: 0%
  pest or weed control at 140 g/ha: 0%
[6]
  pest or weed control at 17.5 g/ha: 60%
  pest or weed control at 35 g/ha: 70%
  pest or weed control at 70 g/ha: 75%
  pest or weed control at 140 g/ha: 80%
[7]
  pest or weed control at 17.5 g/ha: 0%
  pest or weed control at 35 g/ha: 0%
  pest or weed control at 70 g/ha: 0%
  pest or weed control at 140 g/ha: 0%
[8]
  pest or weed control at 17.5 g/ha: 0%
  pest or weed control at 35 g/ha: 0%
  pest or weed control at 70 g/ha: 0%
  pest or weed control at 140 g/ha: 0%
[9]
  pest or weed control at 17.5 g/ha: 0%
  pest or weed control at 35 g/ha: 0%
  pest or weed control at 70 g/ha: 0%
  pest or weed control at 140 g/ha: 0%
[10]
  pest or weed control at 17.5 g/ha: 10%
  pest or weed control at 35 g/ha: 20%
  pest or weed control at 70 g/ha: 40%
  pest or weed control at 140 g/ha: 50%
[11]
  pest or weed control at 17.5 g/ha: 0%
  pest or weed control at 35 g/ha: 0%
  pest or weed control at 70 g/ha: 0%
  pest or weed control at 140 g/ha: 10%

## COC(=O)c1nc(-c2ccc(Cl)c3c2OC(F)(F)O3)c(F)c(N)c1Cl [Compound 6]
[1]
  pest or weed control at 17.5 g/ha: 3%
  pest or weed control at 35 g/ha: 12%
  pest or weed control at 70 g/ha: 30%
  pest or weed control at 140 g/ha: 53%
[2]
  pest or weed control at 17.5 g/ha: 0%
  pest or weed control at 35 g/ha: 2%
  pest or weed control at 70 g/ha: 10%
  pest or weed control at 140 g/ha: 23%
[3]
  pest or weed control at 17.5 g/ha: 80%
  pest or weed control at 35 g/ha: 82%
  pest or weed control at 70 g/ha: 92%
  pest or weed control at 140 g/ha: 97%
[4]
  pest or weed control at 17.5 g/ha: 30%
  pest or weed control at 35 g/ha: 25%
  pest or weed control at 70 g/ha: 25%
  pest or weed control at 140 g/ha: 60%
[5]
  pest or weed control at 17.5 g/ha: 0%
  pest or weed control at 35 g/ha: 0%
  pest or weed control at 70 g/ha: 0%
  pest or weed control at 140 g/ha: 0%
[6]
  pest or weed control at 17.5 g/ha: 70%
  pest or weed control at 35 g/ha: 77%
  pest or weed control at 70 g/ha: 85%
  pest or weed control at 140 g/ha: 88%
[7]
  pest or weed control at 17.5 g/ha: 0%
  pest or weed control at 35 g/ha: 0%
  pest or weed control at 70 g/ha: 3%
  pest or weed control at 140 g/ha: 3%
[8]
  pest or weed control at 17.5 g/ha: 0%
  pest or weed control at 35 g/ha: 0%
  pest or weed control at 70 g/ha: 0%
  pest or weed control at 140 g/ha: 3%
[9]
  pest or weed control at 17.5 g/ha: 2%
  pest or weed control at 35 g/ha: 0%
  pest or weed control at 70 g/ha: 2%
  pest or weed control at 140 g/ha: 7%
[10]
  pest or weed control at 17.5 g/ha: 75%
  pest or weed control at 35 g/ha: 77%
  pest or weed control at 70 g/ha: 80%
  pest or weed control at 140 g/ha: 83%
[11]
  pest or weed control at 17.5 g/ha: 0%
  pest or weed control at 35 g/ha: 3%
  pest or weed control at 70 g/ha: 3%
  pest or weed control at 140 g/ha: 10%
